Experimental data published in ChEMBL document CHEMBL3856181, “Cigarette Smoke-Induced Lung Disease Predisposes to More Severe Infection with Nontypeable Haemophilus influenzae: Protective Effects of Andrographolide” (J Nat Prod, 2016).
The source made the active and inactive calls.

Key:
Format in all cases: functional, organism-based
[1] = Downregulation of MMP9 gene expression in lungs of cigarette smoke-predisposed BALB/c mouse model of NTHi-inflammation at 5 and 10 mg/kg, ip administered post 1 and 24 hrs of NTHi-challenge by RT-PCR method
Mus musculus [2] = test: Antiinflammatory activity in cigarette smoke-predisposed BALB/c mouse model of NTHi-inflammation assessed as suppression of lung 8-OHdG level at 5 and 10 mg/kg, ip administered post 1 and 24 hrs of NTHi-challenge by ELISA
Mus musculus [3] = test: Activation of Nrf2 in cigarette smoke-predisposed BALB/c mouse model of NTHi-inflammation assessed as increase in lung GPx2 expression at 5 and 10 mg/kg, ip administered post 1 and 24 hrs of NTHi-challenge by RT-PCR method
Mus musculus [4] = test: Antiinflammatory activity in cigarette smoke-predisposed BALB/c mouse model of NTHi-inflammation assessed as suppression of lung TNF-alpha level at 5 and 10 mg/kg, ip administered post 1 and 24 hrs of NTHi-challenge by ELISA
Mus musculus [5] = test: Activation of Nrf2 in cigarette smoke-predisposed BALB/c mouse model of NTHi-inflammation assessed as increase in lung NQO1 expression at 5 and 10 mg/kg, ip administered post 1 and 24 hrs of NTHi-challenge by RT-PCR method
[6] = Reduction of Keap1 gene expression in lungs of cigarette smoke-predisposed BALB/c mouse model of NTHi-inflammation at 5 and 10 mg/kg, ip administered post 1 and 24 hrs of NTHi-challenge by RT-PCR method
Mus musculus [7] = test: Anti-inflammatory activity in cigarette smoke-predisposed BALB/c mouse model of NTHi-inflammation assessed as reduction in neutrophil infiltration in BAL fluid at 10 mg/kg, ip administered at 1 and 24 hrs post NTHi-challenge by Wright-staining based differential cell counting method
Mus musculus [8] = test: Antiinflammatory activity in cigarette smoke-predisposed BALB/c mouse model of NTHi-inflammation assessed as suppression of lung CXCL1/KC level at 5 and 10 mg/kg, ip administered post 1 and 24 hrs of NTHi-challenge by ELISA
Mus musculus [9] = test: Anti-inflammatory activity in cigarette smoke-predisposed BALB/c mouse model of NTHi-inflammation assessed as reduction in macrophage infiltration in BAL fluid at 10 mg/kg, ip administered at 1 and 24 hrs post NTHi-challenge by Wright-staining based differential cell counting method
Mus musculus [10] = test: Induction of Nrf2 nuclear translocation in cigarette smoke-predisposed BALB/c mouse model of NTHi-inflammation assessed as Nrf2 binding to antioxidant response element consensus DNA binding site at 5 and 10 mg/kg, ip administered post 1 and 24 hrs of NTHi-challenge by ELISA
Mus musculus [11] = test: Activation of Nrf2 in cigarette smoke-predisposed BALB/c mouse model of NTHi-inflammation assessed as increase in lung OH-1 expression at 5 and 10 mg/kg, ip administered post 1 and 24 hrs of NTHi-challenge by RT-PCR method
Mus musculus [12] = test: Antiinflammatory activity in cigarette smoke-predisposed BALB/c mouse model of NTHi-inflammation assessed as reduction in lung inflammation score at 10 mg/kg, ip administered at 1 and 24 hrs post NTHi-challenge by hematoxylin and eosin staining-based method
[13] = Downregulation of MMP8 gene expression in lungs of cigarette smoke-predisposed BALB/c mouse model of NTHi-inflammation at 5 and 10 mg/kg, ip administered post 1 and 24 hrs of NTHi-challenge by RT-PCR method
Mus musculus [14] = test: Antiinflammatory activity in cigarette smoke-predisposed BALB/c mouse model of NTHi-inflammation assessed as suppression of lung IL-1 beta level at 5 and 10 mg/kg, ip administered post 1 and 24 hrs of NTHi-challenge by ELISA
Mus musculus [15] = test: Activation of Nrf2 in cigarette smoke-predisposed BALB/c mouse model of NTHi-inflammation assessed as increase in lung GR expression at 5 and 10 mg/kg, ip administered post 1 and 24 hrs of NTHi-challenge by RT-PCR method
Mus musculus [16] = test: Activation of Nrf2 in cigarette smoke-predisposed BALB/c mouse model of NTHi-inflammation assessed as increase in lung GCLM expression at 5 and 10 mg/kg, ip administered post 1 and 24 hrs of NTHi-challenge by RT-PCR method

C=C1CC[C@@H]2[C@](C)(CO)[C@H](O)CC[C@@]2(C)[C@@H]1C/C=C1/C(=O)OC[C@H]1O
active: Activity [1] | inhibition (Mus musculus [2]) | Activity (Mus musculus [3]) | inhibition (Mus musculus [4]) | Activity (Mus musculus [5]) | Activity [6] | Activity (Mus musculus [7]) | inhibition (Mus musculus [8]) | Activity (Mus musculus [9]) | Activity (Mus musculus [10]) | Activity (Mus musculus [11]) | Activity (Mus musculus [12]) | Activity [13] | inhibition (Mus musculus [14]) | Activity (Mus musculus [15]) | Activity (Mus musculus [16])
